# ChEMBL document CHEMBL1201862, “PubChem BioAssay data set” (2004)
# Where a name gives a salt, the structure may show the parent alone. Active and inactive are the calls of the source.
# Tests used:
# [1] = target: T1, Sentrin-specific protease 8 (Homo sapiens, UniProt Q96LD8); type: functional
# T1 sequence (Q96LD8 whole entry): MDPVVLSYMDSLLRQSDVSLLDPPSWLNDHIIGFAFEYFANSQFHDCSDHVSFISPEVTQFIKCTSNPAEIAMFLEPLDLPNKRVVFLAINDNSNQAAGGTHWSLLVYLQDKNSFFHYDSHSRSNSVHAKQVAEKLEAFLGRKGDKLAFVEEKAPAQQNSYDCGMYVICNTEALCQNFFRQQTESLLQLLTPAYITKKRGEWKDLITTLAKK
# [2] = target: T2, Sentrin-specific protease 7 (Homo sapiens, UniProt Q9BQF6); type: functional;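 further: Luminescence-based dose-response confirmation of ultra-high-throughput screening hits, measuring inhibition of SENP7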
# T2 sequence (Q9BQF6 whole entry): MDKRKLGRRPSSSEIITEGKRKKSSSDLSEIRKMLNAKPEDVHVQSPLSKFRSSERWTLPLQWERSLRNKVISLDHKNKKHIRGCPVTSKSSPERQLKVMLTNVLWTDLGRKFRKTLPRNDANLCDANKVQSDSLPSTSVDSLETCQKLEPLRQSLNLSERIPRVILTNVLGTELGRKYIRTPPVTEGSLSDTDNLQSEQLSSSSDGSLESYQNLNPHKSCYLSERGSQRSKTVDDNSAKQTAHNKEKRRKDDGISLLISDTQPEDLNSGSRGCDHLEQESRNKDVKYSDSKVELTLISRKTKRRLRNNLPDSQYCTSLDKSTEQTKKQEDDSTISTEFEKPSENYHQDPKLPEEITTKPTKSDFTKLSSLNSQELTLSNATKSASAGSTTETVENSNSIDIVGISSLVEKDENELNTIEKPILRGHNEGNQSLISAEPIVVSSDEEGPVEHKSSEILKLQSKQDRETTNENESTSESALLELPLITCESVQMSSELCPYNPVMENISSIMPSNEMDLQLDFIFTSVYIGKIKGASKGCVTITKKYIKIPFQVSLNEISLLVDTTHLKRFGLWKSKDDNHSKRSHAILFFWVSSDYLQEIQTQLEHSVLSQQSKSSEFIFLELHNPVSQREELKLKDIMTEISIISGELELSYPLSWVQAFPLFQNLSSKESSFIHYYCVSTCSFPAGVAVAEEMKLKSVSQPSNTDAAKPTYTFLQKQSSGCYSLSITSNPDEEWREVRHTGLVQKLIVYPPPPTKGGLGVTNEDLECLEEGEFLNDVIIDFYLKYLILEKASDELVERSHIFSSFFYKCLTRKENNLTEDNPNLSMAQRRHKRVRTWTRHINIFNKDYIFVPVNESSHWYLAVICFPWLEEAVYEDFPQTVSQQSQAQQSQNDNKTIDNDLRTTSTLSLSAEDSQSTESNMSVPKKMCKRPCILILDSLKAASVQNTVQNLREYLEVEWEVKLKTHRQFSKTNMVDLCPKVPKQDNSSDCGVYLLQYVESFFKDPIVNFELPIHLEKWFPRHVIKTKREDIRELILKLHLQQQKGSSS
# [3] = target: Mitochondrial peptide methionine sulfoxide reductase (Bos taurus, UniProt P54149); assay: Absorbance-based biochemical high throughput dose response assay for activators of Methionine sulfoxide reductase A (MsrA).; type: functional
# Sequence of Mitochondrial peptide methionine sulfoxide reductase (P54149 whole entry): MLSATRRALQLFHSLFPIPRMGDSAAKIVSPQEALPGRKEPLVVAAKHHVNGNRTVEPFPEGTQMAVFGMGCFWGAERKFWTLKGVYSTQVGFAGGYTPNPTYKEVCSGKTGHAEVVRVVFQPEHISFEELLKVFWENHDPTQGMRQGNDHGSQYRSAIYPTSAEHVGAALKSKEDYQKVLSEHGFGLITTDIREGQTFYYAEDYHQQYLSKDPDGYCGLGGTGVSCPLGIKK
# [4] = target: T3, Sentrin-specific protease 6 (Homo sapiens, UniProt Q9GZR1); type: functional;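 further: Luminescence-based dose-response confirmatory assay of SENP6 inhibition, following up an ultra-high-throughput screen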
# T3 sequence (Q9GZR1 whole entry): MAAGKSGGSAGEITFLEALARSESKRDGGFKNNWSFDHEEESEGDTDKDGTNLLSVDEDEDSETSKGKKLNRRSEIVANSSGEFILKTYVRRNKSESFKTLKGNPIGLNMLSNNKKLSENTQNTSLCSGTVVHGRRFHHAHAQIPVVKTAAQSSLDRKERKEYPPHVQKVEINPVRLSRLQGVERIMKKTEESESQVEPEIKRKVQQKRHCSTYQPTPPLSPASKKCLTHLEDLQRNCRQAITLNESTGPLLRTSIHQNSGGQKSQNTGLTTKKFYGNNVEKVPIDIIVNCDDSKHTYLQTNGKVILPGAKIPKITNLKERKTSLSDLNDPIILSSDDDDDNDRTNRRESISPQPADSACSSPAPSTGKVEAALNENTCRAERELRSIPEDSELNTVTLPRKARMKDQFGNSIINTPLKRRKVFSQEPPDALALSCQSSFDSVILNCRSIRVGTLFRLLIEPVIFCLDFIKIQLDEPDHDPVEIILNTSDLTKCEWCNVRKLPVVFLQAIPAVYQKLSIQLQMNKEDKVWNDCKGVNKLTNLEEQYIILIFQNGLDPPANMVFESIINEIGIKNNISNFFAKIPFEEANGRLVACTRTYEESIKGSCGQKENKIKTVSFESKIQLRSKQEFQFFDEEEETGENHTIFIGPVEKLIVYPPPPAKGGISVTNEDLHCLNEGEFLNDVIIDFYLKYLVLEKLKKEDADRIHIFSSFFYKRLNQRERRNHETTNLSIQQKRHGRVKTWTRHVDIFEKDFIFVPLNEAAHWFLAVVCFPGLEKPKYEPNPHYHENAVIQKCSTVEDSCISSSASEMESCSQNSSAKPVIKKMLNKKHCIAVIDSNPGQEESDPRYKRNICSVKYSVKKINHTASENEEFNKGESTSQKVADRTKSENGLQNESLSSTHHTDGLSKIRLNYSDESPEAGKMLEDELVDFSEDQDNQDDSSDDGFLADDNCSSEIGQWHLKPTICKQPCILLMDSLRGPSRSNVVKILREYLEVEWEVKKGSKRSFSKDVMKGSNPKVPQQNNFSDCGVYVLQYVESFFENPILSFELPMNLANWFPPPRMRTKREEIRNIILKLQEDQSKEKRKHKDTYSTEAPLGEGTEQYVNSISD
# [5] = target: T1, Sentrin-specific protease 8; type: functional; remark: listed apart in the source
# Caspase-3 [6] = target: T4, Caspase-3 (Homo sapiens, UniProt P42574); type: functional
# T4 sequence (P42574 whole entry): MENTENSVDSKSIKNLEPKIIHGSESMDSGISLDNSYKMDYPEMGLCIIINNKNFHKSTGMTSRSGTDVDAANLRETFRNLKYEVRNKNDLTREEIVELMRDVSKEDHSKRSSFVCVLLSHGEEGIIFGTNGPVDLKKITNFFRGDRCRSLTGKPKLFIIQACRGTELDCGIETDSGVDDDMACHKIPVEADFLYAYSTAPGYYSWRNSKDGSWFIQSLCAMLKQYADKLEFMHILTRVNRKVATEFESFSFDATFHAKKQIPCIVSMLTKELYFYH
# [7] = target: T1, Sentrin-specific protease 8; type: functional; remark: listed apart in the source
# Caspase-3 [8] = target: T4, Caspase-3; assay: Dose-response confirmation of uHTS inhibitor hits of Sentrin-Specific Protease 8 in a Caspase-3 Fluorescence assay.; type: functional
# Vero = assay: Vero cell toxicity, dose response, cytotoxicity control, plate reader, cherry-pick samples (AID 687020); type: functional, cell-based; settings: Chlorocebus sabaeus
# Protein S100-A4 = Protein S100-A4 (Homo sapiens, UniProt P26447); assay: S100A4-myosin IIA binding inhibitor potency, dose response, biochemical, fluorescence polarization, cherry-picked hits (AID 687001); type: functional
# Sequence of Protein S100-A4 (P26447 whole entry): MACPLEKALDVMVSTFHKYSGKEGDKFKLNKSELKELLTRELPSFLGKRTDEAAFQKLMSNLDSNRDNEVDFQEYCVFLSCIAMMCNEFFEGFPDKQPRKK
# cells [9] = type: functional, cell-based
# [10] = target: T5, Trace amine-associated receptor 1 (Homo sapiens, UniProt Q96RJ0); assay: Counterscreen for agonists of the human trace amine associated receptor 1 (hTAAR1): Fluorescence-based cell-based high throughput dose response assay to identify hTAAR1 agonist that also desensitize TAAR1 receptor response.; type: functional
# T5 sequence (Q96RJ0 whole entry): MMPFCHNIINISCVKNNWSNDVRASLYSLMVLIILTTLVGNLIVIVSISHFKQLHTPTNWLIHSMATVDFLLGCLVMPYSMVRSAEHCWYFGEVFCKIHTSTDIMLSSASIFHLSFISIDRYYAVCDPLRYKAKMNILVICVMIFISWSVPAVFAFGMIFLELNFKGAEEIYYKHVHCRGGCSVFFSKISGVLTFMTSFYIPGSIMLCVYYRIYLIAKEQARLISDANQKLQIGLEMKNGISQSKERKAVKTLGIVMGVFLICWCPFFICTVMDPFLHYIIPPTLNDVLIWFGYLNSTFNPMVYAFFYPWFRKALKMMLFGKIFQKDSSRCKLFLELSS
# cells [11] = type: functional, cell-based; remark: listed apart in the source
# Cytochrome P450 3A4 [12] = target: T6, Cytochrome P450 3A4 (Homo sapiens, UniProt P08684); settings: Potency
# T6 sequence (P08684 whole entry): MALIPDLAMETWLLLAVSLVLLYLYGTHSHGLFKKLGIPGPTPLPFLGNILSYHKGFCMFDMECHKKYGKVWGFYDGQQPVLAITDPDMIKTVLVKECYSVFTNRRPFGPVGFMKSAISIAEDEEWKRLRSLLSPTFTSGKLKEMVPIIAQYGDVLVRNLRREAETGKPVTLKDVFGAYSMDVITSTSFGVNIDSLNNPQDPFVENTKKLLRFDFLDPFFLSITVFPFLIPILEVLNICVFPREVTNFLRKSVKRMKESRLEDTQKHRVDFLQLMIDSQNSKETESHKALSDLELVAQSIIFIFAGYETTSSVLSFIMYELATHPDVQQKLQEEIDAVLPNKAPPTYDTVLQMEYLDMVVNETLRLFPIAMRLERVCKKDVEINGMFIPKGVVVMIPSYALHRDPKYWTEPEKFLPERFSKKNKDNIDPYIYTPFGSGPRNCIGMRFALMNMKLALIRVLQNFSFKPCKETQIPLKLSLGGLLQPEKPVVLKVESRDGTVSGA
# [13] = target: T5, Trace amine-associated receptor 1; assay: Fluorescence-based cell-based high throughput dose response assay to identify agonists of the human trace amine associated receptor 1 (TAAR1).; type: functional
# cells [14] = type: functional, cell-based; remark: listed apart in the source
# [15] = target: T7, Nuclear receptor subfamily 0 group B member 1 (Homo sapiens, UniProt P51843); type: functional, cell-based;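 further: HEK293T cells transfected with SF-1 and DAX-1 plus StAR promoter luciferase reporter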
# T7 sequence (P51843 whole entry): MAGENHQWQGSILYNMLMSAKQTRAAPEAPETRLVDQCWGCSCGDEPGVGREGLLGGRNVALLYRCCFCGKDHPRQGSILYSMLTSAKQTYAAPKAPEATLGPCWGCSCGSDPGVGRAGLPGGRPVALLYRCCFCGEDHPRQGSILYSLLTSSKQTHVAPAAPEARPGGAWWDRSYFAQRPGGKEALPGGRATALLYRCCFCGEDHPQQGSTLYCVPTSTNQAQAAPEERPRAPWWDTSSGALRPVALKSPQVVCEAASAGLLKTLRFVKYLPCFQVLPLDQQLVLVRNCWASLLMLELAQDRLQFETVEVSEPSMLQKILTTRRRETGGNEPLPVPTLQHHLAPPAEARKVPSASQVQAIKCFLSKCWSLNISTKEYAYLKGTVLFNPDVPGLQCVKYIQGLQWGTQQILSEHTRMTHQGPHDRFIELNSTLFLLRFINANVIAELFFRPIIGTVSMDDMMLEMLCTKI
# [16] = target: 5-hydroxytryptamine receptor 2A (Mus musculus, UniProt P35363); type: functional, cell-based;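 further: CHO-K1 cells with tagged receptor and beta-arrestin; agonist potency measured as compound-induced activation of the receptor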
# Sequence of 5-hydroxytryptamine receptor 2A (P35363 whole entry): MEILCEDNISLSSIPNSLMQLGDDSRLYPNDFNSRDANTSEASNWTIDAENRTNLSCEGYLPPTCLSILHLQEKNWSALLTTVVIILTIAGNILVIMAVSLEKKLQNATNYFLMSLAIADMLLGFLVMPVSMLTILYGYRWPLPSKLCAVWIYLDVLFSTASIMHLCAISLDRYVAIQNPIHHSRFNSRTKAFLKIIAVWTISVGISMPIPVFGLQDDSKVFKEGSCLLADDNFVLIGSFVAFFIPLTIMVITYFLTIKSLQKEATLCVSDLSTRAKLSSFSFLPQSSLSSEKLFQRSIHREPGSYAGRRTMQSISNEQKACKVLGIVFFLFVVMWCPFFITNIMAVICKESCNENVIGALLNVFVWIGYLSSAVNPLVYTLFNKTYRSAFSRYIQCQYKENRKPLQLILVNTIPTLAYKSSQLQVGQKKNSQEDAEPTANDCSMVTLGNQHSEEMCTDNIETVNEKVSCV
# Mu-type opioid receptor = Mu-type opioid receptor (Homo sapiens, UniProt P35372); type: functional, cell-based;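 further: U2OS cells with beta-arrestin recruitment to OPRM1 by beta-gal complementation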
# Sequence of Mu-type opioid receptor (P35372 whole entry): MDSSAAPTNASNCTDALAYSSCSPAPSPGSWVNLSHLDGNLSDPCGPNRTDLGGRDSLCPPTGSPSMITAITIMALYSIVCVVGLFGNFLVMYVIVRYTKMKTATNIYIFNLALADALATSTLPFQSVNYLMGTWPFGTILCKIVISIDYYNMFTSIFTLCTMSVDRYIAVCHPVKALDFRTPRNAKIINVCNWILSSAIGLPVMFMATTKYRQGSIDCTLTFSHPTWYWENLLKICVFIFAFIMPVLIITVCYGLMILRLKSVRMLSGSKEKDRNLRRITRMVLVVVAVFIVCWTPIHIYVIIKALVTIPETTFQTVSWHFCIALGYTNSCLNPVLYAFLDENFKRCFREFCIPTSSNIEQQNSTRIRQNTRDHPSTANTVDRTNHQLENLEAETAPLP
# [17] = cytotoxicity in HEK-293T cells, dose response, cytotoxicity control for TCR NF-kB inhibitor project, luminescence, T-cell screen hits (AID 489026); type: functional, cell-based;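 further: cells exposed to compound about 14 hours before the viability readout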
# cells [18] = type: functional, cell-based; settings: HEK-CNG
# Galanin receptor type 3 = Galanin receptor type 3 (Homo sapiens, UniProt O60755); assay: Fluorescence-based cell-based primary high throughput dose response assay to identify antagonists of the Galanin Receptor 3 (GalR3).; type: functional
# Sequence of Galanin receptor type 3 (O60755 whole entry): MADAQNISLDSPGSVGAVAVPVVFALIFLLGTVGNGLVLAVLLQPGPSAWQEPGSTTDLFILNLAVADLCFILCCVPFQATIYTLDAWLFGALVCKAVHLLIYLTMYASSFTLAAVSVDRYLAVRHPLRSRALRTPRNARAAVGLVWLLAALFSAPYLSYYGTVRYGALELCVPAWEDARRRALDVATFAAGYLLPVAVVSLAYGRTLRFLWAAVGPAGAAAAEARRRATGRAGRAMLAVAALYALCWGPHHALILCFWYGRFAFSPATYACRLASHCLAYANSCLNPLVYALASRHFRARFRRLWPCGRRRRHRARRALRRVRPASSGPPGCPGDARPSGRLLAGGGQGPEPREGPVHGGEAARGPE
# [19] = Counterscreen for activators of the function of SWI/SNF related, matrix associated, actin dependent regulator of chromatin, subfamily a, member 2 (SMARCA2, BRM): Luminescence-based cell-based high throughput dose response assay to identify non-selective compounds using the VP16 reporter assay.; type: functional
# [20] = target: SWI/SNF-related matrix-associated actin-dependent regulator of chromatin subfamily A member 2 (Homo sapiens, UniProt P51531); assay: Luminescence-based cell-based high throughput dose response assay to identify activators of the function of SWI/SNF related, matrix associated, actin dependent regulator of chromatin, subfamily a, member 2 (SMARCA2, BRM).; type: functional
# [21] = target: T8, Methionyl-tRNA synthetase, putative (Trypanosoma brucei brucei, UniProt Q38C91); type: functional, Trypanosoma brucei brucei strain 927/4 GUTat10.1
# T8 sequence (Q38C91 whole entry): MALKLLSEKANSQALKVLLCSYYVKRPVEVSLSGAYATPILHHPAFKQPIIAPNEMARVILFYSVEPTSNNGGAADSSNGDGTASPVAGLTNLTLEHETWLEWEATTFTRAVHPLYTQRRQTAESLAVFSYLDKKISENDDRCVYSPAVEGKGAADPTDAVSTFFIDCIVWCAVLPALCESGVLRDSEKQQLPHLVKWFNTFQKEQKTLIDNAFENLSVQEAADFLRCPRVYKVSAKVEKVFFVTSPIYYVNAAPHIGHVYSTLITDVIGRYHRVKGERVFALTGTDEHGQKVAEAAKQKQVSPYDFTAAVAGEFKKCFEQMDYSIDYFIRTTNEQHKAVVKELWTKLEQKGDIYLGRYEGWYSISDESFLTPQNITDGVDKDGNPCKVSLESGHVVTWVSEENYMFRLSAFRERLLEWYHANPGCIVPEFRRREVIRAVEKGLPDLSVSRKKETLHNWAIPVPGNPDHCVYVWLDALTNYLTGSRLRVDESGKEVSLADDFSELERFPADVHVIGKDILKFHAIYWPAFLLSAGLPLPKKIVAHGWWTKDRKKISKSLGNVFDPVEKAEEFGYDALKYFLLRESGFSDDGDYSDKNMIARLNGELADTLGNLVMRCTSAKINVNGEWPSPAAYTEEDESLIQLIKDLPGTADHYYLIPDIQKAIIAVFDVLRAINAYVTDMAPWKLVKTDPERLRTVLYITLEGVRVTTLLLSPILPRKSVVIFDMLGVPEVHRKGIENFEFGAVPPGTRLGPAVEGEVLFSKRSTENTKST
# [22] = target: T8, Methionyl-tRNA synthetase, putative; type: functional, Trypanosoma brucei brucei strain 927/4 GUTat10.1; remark: listed apart in the source
# [23] = HepG2 cell cytotoxicity, dose response, cytotoxicity control for Shn3 inhibitor project, CellTiter-Glo, cherry-picked (AID 624134); type: functional, cell-based
# [24] = control 3'UTR Renilla luciferase suppression, dose response, counter-screen for Shn3 inhibitor project, cell-based, Clone20-Shn3RL, cherry-picked (AID 624133); type: functional
# [25] = Counterscreen for inhibitors of Trypanosoma brucei methionyl tRNA synthetase (MetRS): Luminescence-based cell-based high throughput dose response assay to identify compounds that are cytotoxic to Jurkat human T lymphocyte cells.; type: functional
# [26] = Shn3 3'UTR reporter inhibitors, dose response, cell-based, Clone20 osteoblasts, firefly luciferase, cherry-picked (AID 624132); type: functional;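 further: firefly luciferase luminescence from reporter carrying the Shn3 3'UTR in osteoblasts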
# Cytochrome P450 2D6 = Cytochrome P450 2D6 (Homo sapiens, UniProt P10635);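 further: CYP2D6 member of a cytochrome P450 panel assay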
# Sequence of Cytochrome P450 2D6 (P10635 whole entry): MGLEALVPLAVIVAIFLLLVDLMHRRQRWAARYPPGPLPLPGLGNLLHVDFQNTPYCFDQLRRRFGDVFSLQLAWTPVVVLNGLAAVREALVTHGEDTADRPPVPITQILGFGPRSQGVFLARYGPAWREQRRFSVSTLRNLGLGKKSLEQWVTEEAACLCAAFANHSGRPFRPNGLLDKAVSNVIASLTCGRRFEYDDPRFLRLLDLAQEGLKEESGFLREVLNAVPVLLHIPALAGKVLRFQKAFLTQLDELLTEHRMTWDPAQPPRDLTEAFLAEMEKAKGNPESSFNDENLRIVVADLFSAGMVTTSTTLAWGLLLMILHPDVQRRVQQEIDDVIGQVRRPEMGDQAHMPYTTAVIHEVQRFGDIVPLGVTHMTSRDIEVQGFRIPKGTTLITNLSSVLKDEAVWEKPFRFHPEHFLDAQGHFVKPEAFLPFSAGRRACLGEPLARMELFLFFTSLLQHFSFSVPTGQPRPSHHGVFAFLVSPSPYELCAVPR
# Cytochrome P450 3A4 [27] = target: T6, Cytochrome P450 3A4
# Cytochrome P450 2C9 = Cytochrome P450 2C9 (Homo sapiens, UniProt P11712)
# Sequence of Cytochrome P450 2C9 (P11712 whole entry): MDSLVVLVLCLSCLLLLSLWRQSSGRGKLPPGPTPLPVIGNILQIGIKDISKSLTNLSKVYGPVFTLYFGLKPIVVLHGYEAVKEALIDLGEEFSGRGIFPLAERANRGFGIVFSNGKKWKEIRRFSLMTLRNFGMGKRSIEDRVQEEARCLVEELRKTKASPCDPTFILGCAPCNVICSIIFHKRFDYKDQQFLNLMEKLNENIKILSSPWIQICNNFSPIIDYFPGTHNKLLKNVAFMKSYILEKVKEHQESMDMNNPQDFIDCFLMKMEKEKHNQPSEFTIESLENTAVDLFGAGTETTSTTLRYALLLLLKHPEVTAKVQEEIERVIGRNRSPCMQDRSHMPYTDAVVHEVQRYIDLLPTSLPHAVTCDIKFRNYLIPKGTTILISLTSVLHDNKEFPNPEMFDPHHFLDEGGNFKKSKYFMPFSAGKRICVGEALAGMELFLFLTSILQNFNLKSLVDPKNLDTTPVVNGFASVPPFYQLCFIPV
structure (smiles),measurement,setting,value
O=C(COC(=O)c1ccc([N+](=O)[O-])s1)NNC(=O)c1ccccc1,IC50,[1],4.94 µM (active)
same,IC50,[2],6.91 µM (active)
same,EC50,[3],36.1 µM (inactive)
same,IC50,[4],4.34 µM (active)
same,IC50,[5],4.2 µM (active)
same,IC50,Caspase-3 [6],6.74 µM (active)
same,IC50,[7],2.3 µM (active)
same,IC50,Caspase-3 [8],84.6 µM (inactive)
CC1(C(=O)NCc2cccc(C(F)(F)F)c2)CCN1Cc1cc2ccccc2o1 (stereo not drawn),AC50,Vero,20.4 µM (active)
O=C(CCc1ccccc1Cl)NC1CCCN(c2ccc(C(F)(F)F)cn2)C1 (stereo not drawn),AC50,Protein S100-A4,9.67 µM (active)
NCC(=O)c1ccccc1 [PHENACYLAMINE HYDROCHLORIDE],IC50,cells [9],> 29.9 µM (inactive)
same,IC50,[10],7.42 µM (active)
same,EC50,cells [11],> 29.9 µM (inactive)
same,AC50,Cytochrome P450 3A4 [12],6.31 µM (inconclusive)
same,EC50,[13],1.08 µM (active)
Cn1nnnc1SCC(=O)Nc1ccc2c(c1)OCCO2,IC50,cells [14],> 67.5 µM (inactive)
same,IC50,[15],> 67.5 µM (inactive)
Cc1ccc(C)c(CN2CCN(c3ncccn3)CC2)c1,EC50,[16],76 µM (inactive)
same,EC50,Mu-type opioid receptor,92.4 µM (inactive)
CCCCc1ccc(NC(=O)c2ccc(N(C)S(C)(=O)=O)cc2)cc1,IC50,[17],> 80 µM (inactive)
same,EC50,cells [18],> 29.9 µM (inactive)
same,IC50,Galanin receptor type 3,996 nM (active)
CCCCn1c(=N)n(CC(=O)c2ccc(OC)cc2)c2ccccc21,EC50,[19],> 91.1 µM (inactive)
same,EC50,[20],> 91.1 µM (inactive)
Nc1nc(N)c(-c2cccc(C(F)(F)F)c2)c(Cc2cccc(C(F)(F)F)c2)n1,IC50,[21],19.5 µM (inactive)
same,IC50,[22],12.7 µM (inactive)
same,AC50,[23],5.88 µM (active)
same,AC50,[24],3.87 µM (active)
same,IC50,[25],20.7 µM (inactive)
same,AC50,[26],3.6 µM (active)
same,AC50,Cytochrome P450 2D6,3.98 µM (inconclusive)
same,AC50,Cytochrome P450 3A4 [27],3.16 µM (inconclusive)
same,AC50,Cytochrome P450 2C9,5.01 µM (inconclusive)
